Where two headings read alike, the source gives them in different places.
What was measured:
c-Met kinase = molecular target: T1, c-Met kinase (Homo sapiens, UniProt P08581); assay: Inhibitory activity of compound to c-Met kinases (Z'-LYTE kinase assay kit); assay type: biochemical; conditions: Tyr 6 substrate peptide, read-out: Strength of activity (inhibition on c-Met kinase, IC50)
T1 construct: purchased Invitrogen PV3143
Description: The inhibitory activity of the compound to c-Met kinases in vitro is determined through the following method.
The method described below can be used to determine the inhibiting capacity of the compound of the present invention on the c-Met kinase activity, and the inhibiting capacity is represented by IC50. The half inhibitory concentration IC50 (a concentration of the compound for inhibiting the enzyme activity to 50%) of the compound is obtained by: mixing and reacting a certain amount of kinase with a specific substrate and different concentrations of test compound, and then labeling the substrate with an anti-phosphotyrosine antibody and a […], and finally quantitatively determining the c-Met kinase activity through a time-resolved fluorescence method.
The specific experiment is implemented by using a Z′-LYTE kinase assay kit (Invitrogen, item PV4122). First, the test compound is diluted into 8 different concentrations from 100 μM at an interval of 1:5 with an ATP solution (Invitrogen, item PV3227); 5 μL 2×c-Met (Invitrogen, item PV3143) and 2×Z′-LYTE Tyr 6 substrate peptide are respectively taken up, and added to a 384-well microtiter plate, 5 μL diluted different concentrations of test compound are added in sequence, and the lid is closed. The microtiter plate is incubated for 60 min at room temperature (20° C. to 25° C.); and then 5 μL […] is added, and the lid is closed. The microtiter plate is incubated for 60 min at room temperature (20° C. to 25° C.); and then 5 μL termination reagent is added to the reaction well, to terminate the reaction. Finally, the fluorescence intensity (OD400) of each well is determined in a fluorescence analyzer (excitation wavelength: 400 nm). The inhibition rate is calculated, and the half inhibitory concentration (IC50) of the compound is calculated according to the inhibition rates of different concentrations.
For a negative control group, except that test compound (replaced by 5 μL ATP solution) is not added, all the other reagents are added. In addition, an enzyme-free control group (that is, blank group) is set.

[1] = test system: Human gastric cancer cell SNU-5; assay: Inhibition of in vitro proliferation of human gastric cancer cell SNU-5 (SRB); assay type: cell-based; conditions: SNU-5 cells, 72-hr agent treatment, read-out: Strength of activity (inhibition on SNU-5, IC50)
Description: Human gastric cancer cells SNU-5 are cultured in an IMDM medium containing 20% fetal bovine serum, and the culture conditions are 37° C. and 5% CO2. Tumor cells are inoculated in a 96-well plate, and after 24-hr sidewall growth, 9 different concentrations of (1 to 30000 nM) an agent are added, after 72-hr agent treatment, the medium is discarded, the cells are fixed by cold trichloroacetic acid, and then dyed with a sulforhodamine B (SRB) solution. Unbound SRB is washed off, and SRB bound with protein was dissolved with Tris, the OD is determined at a wavelength of 510 nm by a microplate reader, and the cell growth inhibition rate is calculated according to the following equation: Inhibition rate=(OD of control well-OD of administered well)/OD of control well×100%
According to the inhibition rates of different concentrations, the half inhibitory concentration IC50 is calculated by using a Logit method.

[2] = test system: human malignant glioma U87-MG xenografts; assay: Efficacy on human malignant glioma U87-MG xenografts in nude mice; assay type: in vivo, BALB/cA-nude nude mice; conditions: 100 mg/kg orally once per day for 16 days
Description: The human malignant glioma U87-MG is purchased from ATCC (American Type Culture Collection), America.
BALB/cA-nude nude mice (♀, 6-7 weeks old) are purchased from Shanghai SLAC Laboratory Animal Co. Ltd. Breeding environment: SPF grade.
In vitro-cultured malignant glioma U87-MG cells are inoculated subcutaneously in nude mice, and after the tumor grows to a size of 100 to 250 mm^3, the animals are randomly divided into groups (d0). The dose of the test agent is 100 mg/kg, and the agent is orally administered once per day for continuous 16 days. The volume of the tumor is measured two to three times per week, the mice are weighed, and the data is recorded. The tumor volume (V) is calculated according to the equation: V=1/2×a×b^2, where a and b respectively represent length and width.
The antineoplastic efficacy is evaluated according to tumor inhibition rate, and the tumor inhibition rate is calculated according to the equation below: Tumor inhibition rate=1−(T−T0)/(C−C0), • where T and C are respectively tumor volumes of the test agent group mice and the blank group mice at the end of the experiment; and T0 and C0 are tumor volumes at the start of the experiment.

T1 sequence (P08581 25-1390): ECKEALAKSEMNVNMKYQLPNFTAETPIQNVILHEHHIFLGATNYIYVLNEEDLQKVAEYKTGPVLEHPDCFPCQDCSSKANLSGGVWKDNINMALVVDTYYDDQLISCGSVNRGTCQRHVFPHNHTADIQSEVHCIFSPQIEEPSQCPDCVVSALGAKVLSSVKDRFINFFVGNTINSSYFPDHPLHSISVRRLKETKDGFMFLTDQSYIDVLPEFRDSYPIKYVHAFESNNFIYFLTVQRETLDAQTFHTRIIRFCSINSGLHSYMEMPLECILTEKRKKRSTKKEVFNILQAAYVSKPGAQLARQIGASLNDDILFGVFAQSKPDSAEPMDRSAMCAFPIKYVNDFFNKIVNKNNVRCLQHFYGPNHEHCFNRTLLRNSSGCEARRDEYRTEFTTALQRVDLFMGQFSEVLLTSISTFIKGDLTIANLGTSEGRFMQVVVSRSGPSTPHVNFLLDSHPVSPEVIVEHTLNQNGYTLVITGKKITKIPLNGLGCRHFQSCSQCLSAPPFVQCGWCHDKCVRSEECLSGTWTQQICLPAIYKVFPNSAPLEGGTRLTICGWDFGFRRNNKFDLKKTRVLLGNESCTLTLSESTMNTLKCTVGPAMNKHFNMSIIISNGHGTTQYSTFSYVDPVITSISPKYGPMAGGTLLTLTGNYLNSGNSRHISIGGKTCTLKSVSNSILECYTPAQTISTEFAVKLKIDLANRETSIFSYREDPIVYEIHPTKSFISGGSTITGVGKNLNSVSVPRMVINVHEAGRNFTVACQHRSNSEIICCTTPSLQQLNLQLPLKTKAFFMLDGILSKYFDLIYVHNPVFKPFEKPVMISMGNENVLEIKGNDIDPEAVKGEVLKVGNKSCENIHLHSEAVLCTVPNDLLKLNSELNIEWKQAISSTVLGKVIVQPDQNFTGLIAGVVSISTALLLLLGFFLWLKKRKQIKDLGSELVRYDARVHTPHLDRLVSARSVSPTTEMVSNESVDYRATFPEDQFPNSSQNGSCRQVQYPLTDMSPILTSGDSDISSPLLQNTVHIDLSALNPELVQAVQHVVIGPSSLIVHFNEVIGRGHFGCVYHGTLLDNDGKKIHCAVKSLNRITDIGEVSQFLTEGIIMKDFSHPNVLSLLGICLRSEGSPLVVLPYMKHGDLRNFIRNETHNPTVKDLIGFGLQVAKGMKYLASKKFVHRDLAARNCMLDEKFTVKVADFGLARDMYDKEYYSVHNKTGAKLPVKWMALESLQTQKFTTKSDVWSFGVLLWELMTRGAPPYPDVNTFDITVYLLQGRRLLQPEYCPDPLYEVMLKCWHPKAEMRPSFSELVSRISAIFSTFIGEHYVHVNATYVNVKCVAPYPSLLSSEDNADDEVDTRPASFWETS

Row | Structure (SMILES) | IC50 (c-Met kinase) [µM] | IC50 ([1]; Homo sapiens) [µM] | IC50 [1] [µM] | Tumor Inhibition Rate (%) [2] [%]
1 | Cn1cnc(-c2cc3nccc(Oc4ccc(NC(=O)c5cc6ncsc6n(-c6ccc(F)cc6)c5=O)cc4F)c3s2)c1 [Embodiment 6] | 0.01 to 0.1 |  | 0.1 to 0.5 | 
2 | CCn1cnc(-c2cc3nccc(Oc4ccc(NC(=O)c5cc6ncsc6n(-c6ccc(F)cc6)c5=O)cc4F)c3s2)c1 [Embodiment 7] | 0.01 to 0.1 | 0.1 to 0.5 |  | 
3 | Cc1n[nH]c2nccc(Oc3ccc(NC(=O)c4cc5ncsc5n(-c5ccc(F)cc5)c4=O)cc3F)c12 [Embodiment 8] | 0.01 to 0.1 | 0.5 to 5 |  | 
4 | CN1CCN(C(=O)Nc2cc(Oc3ccc(NC(=O)c4cc5ncsc5n(-c5ccc(F)cc5)c4=O)cc3F)ccn2)CC1 [Embodiment 10] | 0.1 to 1 | < 0.1 |  | 
5 | O=C(Nc1ccc(Oc2ccnc(NC(=O)N3CCC(O)CC3)c2)c(F)c1)c1cc2ncsc2n(-c2ccc(F)cc2)c1=O [Embodiment 12] | 0.01 to 0.1 | 0.1 to 0.5 |  | 
6 | CN1CCN(C(=O)Nc2nccc(Oc3ccc(NC(=O)c4cc5ncsc5n(-c5ccc(F)cc5)c4=O)cc3F)c2Cl)CC1 [Embodiment 16] | 0.1 to 1 | 0.1 to 0.5 |  | 
7 | Nc1cc(Oc2ccc(NC(=O)c3cc4ncsc4n(-c4ccccc4CCO)c3=O)cc2F)ccn1 [Embodiment 18] | 0.1 to 1 | 0.5 to 5 |  | 
8 | COc1ccc2c(Oc3ccc(NC(=O)c4cc5ncsc5n(-c5ccccc5CCO)c4=O)cc3F)ccnc2c1 [Embodiment 20] | 0.1 to 1 | < 0.1 |  | 
9 | O=C(Nc1ccc(Oc2ccnc3[nH]ccc23)c(F)c1)c1cc2ncsc2n(-c2ccccc2CCO)c1=O [Embodiment 21] | 0.01 to 0.1 | < 0.1 |  | 
10 | COc1cc2c(Oc3ccc(NC(=O)c4cc5ncsc5n(-c5ccccc5CCO)c4=O)cc3F)ccnc2cc1OCCCN1CCOCC1 [Embodiment 22] | > 1 | 0.5 to 5 |  | 
11 | CN(C)c1nc2cc(C(=O)Nc3ccc(Oc4ccnc(N)c4Cl)c(F)c3)c(=O)n(-c3ccc(F)cc3)c2s1 [Embodiment 23] | 0.01 to 0.1 | 0.1 to 0.5 |  | 
12 | COc1ccc2c(Oc3ccc(NC(=O)c4cc5nc(N(C)C)sc5n(-c5ccc(F)cc5)c4=O)cc3F)ccnc2c1 [Embodiment 25] | 0.1 to 1 | 0.5 to 5 |  | 
13 | CN(C)c1nc2cc(C(=O)Nc3ccc(Oc4ccnc5[nH]ccc45)c(F)c3)c(=O)n(-c3ccc(F)cc3)c2s1 [Embodiment 26] | 0.01 to 0.1 | 0.1 to 0.5 |  | 
14 | Cn1ncc2cc(C(=O)Nc3ccc(Oc4ccnc(N)c4)c(F)c3)c(=O)n(-c3ccc(F)cc3)c21 [Embodiment 28] | 0.1 to 1 | 0.5 to 5 |  | 
15 | Cn1ncc2cc(C(=O)Nc3ccc(Oc4ccnc5[nH]ccc45)c(F)c3)c(=O)n(-c3ccc(F)cc3)c21 [Embodiment 31] | 0.01 to 0.1 | 0.1 to 0.5 |  | 
16 | COc1cc2c(Oc3ccc(NC(=O)c4cc5cnn(C)c5n(-c5ccc(F)cc5)c4=O)cc3F)ccnc2cc1OCCCN1CCOCC1 [Embodiment 32] | 0.1 to 1 | 0.1 to 0.5 |  | 
17 | Cn1cnc2cc(C(=O)Nc3ccc(Oc4ccnc5[nH]ccc45)c(F)c3)c(=O)n(-c3ccc(F)cc3)c21 [Embodiment 36] | 0.01 to 0.1 | 0.5 to 5 |  | 
18 | CN1CCOc2cc(C(=O)Nc3ccc(Oc4ccnc(N)c4Cl)c(F)c3)c(=O)n(-c3ccc(F)cc3)c21 [Embodiment 38] | 0.1 to 1 | 0.5 to 5 |  | 
19 | CCOc1c(C(=O)Nc2ccc(Oc3ccnc4[nH]ccc34)c(F)c2)c(=O)n(-c2ccc(F)cc2)c2scnc12 [Embodiment 51] | 0.1 to 1 |  | 0.1 to 0.5 | 

Continued, in another order:

Row | IC50 (c-Met kinase) [µM] | IC50 ([1]; Homo sapiens) [µM] | IC50 [1] [µM] | Structure (SMILES) | Tumor Inhibition Rate (%) [2] [%]
20 | 0.01 to 0.1 | < 0.1 |  | Nc1cc(Oc2ccc(NC(=O)c3cc4ncsc4n(-c4ccc(F)cc4)c3=O)cc2F)ccn1 [Embodiment 1] | 62
21 | < 0.01 | 0.1 to 0.5 |  | Nc1nccc(Oc2ccc(NC(=O)c3cc4ncsc4n(-c4ccc(F)cc4)c3=O)cc2F)c1Cl [Embodiment 2] | 16
22 | 0.01 to 0.1 | 0.1 to 0.5 |  | COc1ccc2c(Oc3ccc(NC(=O)c4cc5ncsc5n(-c5ccc(F)cc5)c4=O)cc3F)ccnc2c1 [Embodiment 3] | 91
23 | < 0.01 |  | 0.1 to 0.5 | O=C(Nc1ccc(Oc2ccnc3[nH]ccc23)c(F)c1)c1cc2ncsc2n(-c2ccc(F)cc2)c1=O [Embodiment 4] | 26
24 | < 0.01 |  | < 0.1 | COc1cc2c(Oc3ccc(NC(=O)c4cc5ncsc5n(-c5ccc(F)cc5)c4=O)cc3F)ccnc2cc1OCCCN1CCOCC1 [Embodiment 5] | 74
25 | < 0.01 |  | 0.1 to 0.5 | O=C(Nc1ccc(Oc2ccnc(NC(=O)N3CCCC3)c2)c(F)c1)c1cc2ncsc2n(-c2ccc(F)cc2)c1=O [Embodiment 9] | 
26 | < 0.01 | 0.1 to 0.5 |  | O=C(Nc1ccc(Oc2ccnc(NC(=O)N3CCOCC3)c2Cl)c(F)c1)c1cc2ncsc2n(-c2ccc(F)cc2)c1=O [Embodiment 17] | 
27 | < 0.01 | 0.1 to 0.5 |  | CN(C)c1nc2cc(C(=O)Nc3ccc(Oc4ccnc(N)c4)c(F)c3)c(=O)n(-c3ccc(F)cc3)c2s1 [Embodiment 24] | 
28 | < 0.01 | < 0.1 |  | Cn1ncc2cc(C(=O)Nc3ccc(Oc4ccnc(N)c4Cl)c(F)c3)c(=O)n(-c3ccc(F)cc3)c21 [Embodiment 29] | 
29 | < 0.01 | 0.1 to 0.5 |  | COc1cc2c(Oc3ccc(NC(=O)c4cc5ncn(C)c5n(-c5ccc(F)cc5)c4=O)cc3F)ccnc2cc1OCCCN1CCOCC1 [Embodiment 37] | 

— patent US9562060B2, “Heterocyclic pyridone compound, and intermediate, preparation method and use thereof” (SHANGHAI HUILUN LIFE SCIENCE & TECHNOLOGY CO., LTD, priority 2011, dated 2017)
